Laboratory results published in the supplement of paper PMC11061612.

How the values were obtained:
Assay in all cases: Bliss excess, mean over the matrix (fraction); higher = more synergy
[1] = system: DB (B-Cell Non-Hodgkin's Lymphoma)
Method in brief: (§1)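 Cell lines grown in DMEM/F12 or RPMI with 10% FBS were plated in 1536-well plates and held 24 hours at 37°C, 5% CO2 before 72 hours of exposure to two-drug dose matrices, with DMSO typically at 0.2%. CellTiter-Glo 2.0 luminescence gave viability, which was converted to inhibition. Vehicle wells were set to 0 and blank wells to 1. Combination Emax is the second-highest inhibition in the matrix, and Bliss excess is the observed combination effect minus the expected EA + EB − EA·EB, where EA and EB are the single-agent effects.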

[2] = system: SW1088 (Low Grade Glioma)
Method in brief: as §1

[3] = system: MDA-MB-157 (Breast Carcinoma)
Method in brief: as §1

[4] = system: SUIT-2 (Pancreatic Carcinoma)
Method in brief: as §1

[5] = system: EM-2 (Chronic Myelogenous Leukemia)
Method in brief: as §1

[6] = system: SW1990 (Pancreatic Carcinoma)
Method in brief: as §1

[7] = system: G-292-Clone-A141B1 (Osteosarcoma)
Method in brief: as §1

[8] = system: NALM-6 (B-Lymphoblastic Leukemia)
Method in brief: as §1

[9] = system: HCC2157 (Breast Carcinoma)
Method in brief: as §1

[10] = system: J82 (Bladder Carcinoma)
Method in brief: as §1

[11] = system: CAL-78 (Chondrosarcoma)
Method in brief: as §1

[12] = system: TGBC24TKB (Biliary Tract Carcinoma)
Method in brief: as §1

[13] = system: IHH-4 (Thyroid Gland Carcinoma)
Method in brief: as §1

[14] = system: HPAC (Pancreatic Carcinoma)
Method in brief: as §1

[15] = system: SW756 (Cervical Carcinoma)
Method in brief: as §1

[16] = system: KATOIII (Gastric Carcinoma)
Method in brief: as §1

[17] = system: IGR-1 (Melanoma)
Method in brief: as §1

[18] = system: DOV13 (Ovarian Carcinoma)
Method in brief: as §1

[19] = system: HT-29 (Colorectal Carcinoma)
Method in brief: as §1

[20] = system: MFH-ino (Other Solid Carcinomas)
Method in brief: as §1

SMILES | Bliss excess [1] | Bliss excess [2] | Bliss excess [3] | Bliss excess [4] | Bliss excess [5] | Bliss excess [6] | Bliss excess [7] | Bliss excess [8] | Bliss excess [9] | Bliss excess [10] | Bliss excess [11] | Bliss excess [12] | Bliss excess [13] | Bliss excess [14] | Bliss excess [15] | Bliss excess [16] | Bliss excess [17] | Bliss excess [18] | Bliss excess [19] | Bliss excess [20]
CC1(C)CCC(CN2CCN(c3ccc(C(=O)NS(=O)(=O)c4ccc(NCC5CCOCC5)c([N+](=O)[O-])c4)c(Oc4cnc5[nH]ccc5c4)c3)CC2)=C(c2ccc(Cl)cc2)C1 [Venetoclax] + C=CCn1c(=O)c2cnc(Nc3ccc(N4CCN(C)CC4)cc3)nc2n1-c1cccc(C(C)(C)O)n1 [AZD1775] (first compound max 1 µM, partner max 1 µM) | 0.0119 | -0.003 | 0.0679 | -0.0295 | -0.0094 | 0.0206 | -0.0023 | 0.119 | -0.0554 | -0.0832 | -0.0817 | -0.0108 | -0.0654 | -0.0565 | -0.0401 | 0.0093 | 0.0147 | 0.131 | 0.008 | -0.0222
CC1(C)CCC(CN2CCN(c3ccc(C(=O)NS(=O)(=O)c4ccc(NCC5CCOCC5)c([N+](=O)[O-])c4)c(Oc4cnc5[nH]ccc5c4)c3)CC2)=C(c2ccc(Cl)cc2)C1 [Venetoclax] + CCN(CCO)CCCOc1ccc2c(Nc3cc(CC(=O)Nc4cccc(F)c4)[nH]n3)ncnc2c1 [AZD2811] (first compound max 1 µM, 7x7, partner max 1 µM) | 0.0416 | -0.0469 | 0.0119 | -0.0135 | -0.0721 | 0.0024 | -0.0413 | 0.0968 | -0.0305 | -0.014 | 0.0143 | 0.005 | -0.0288 | -0.0275 | -0.0292 | -0.0226 | 0.0261 | 0.0465 | 0.0012 | -0.0239
CC1(C)CCC(CN2CCN(c3ccc(C(=O)NS(=O)(=O)c4ccc(NCC5CCOCC5)c([N+](=O)[O-])c4)c(Oc4cnc5[nH]ccc5c4)c3)CC2)=C(c2ccc(Cl)cc2)C1 [Venetoclax] + CN(C)CCCOc1ccc(-c2ccc3ncc4c(c3c2)n(C2CCOCC2)c(=O)n4C)cn1 [AZD0156] (first compound max 1 µM, 7x7, partner max 1 µM) | -0.0166 | -0.0651 | -0.0087 | 0.0031 | -0.0045 | -0.0056 | -0.0367 | 0.0426 | 0.0314 | 0.0014 | -0.0043 | 0.0307 | -0.0153 | -0.0146 | -0.0215 | -0.0156 | 0.0116 | -0.0231 | -0.0086 | -0.0403
CC1(C)CCC(CN2CCN(c3ccc(C(=O)NS(=O)(=O)c4ccc(NCC5CCOCC5)c([N+](=O)[O-])c4)c(Oc4cnc5[nH]ccc5c4)c3)CC2)=C(c2ccc(Cl)cc2)C1 [Venetoclax] + COc1cc(Nc2ncc3c(n2)-c2ccc(Cl)cc2C(c2c(F)cccc2OC)=NC3)ccc1C(=O)O [Alisertib] (first compound max 1 µM, 7x7, partner max 10 µM) | 0.124 | 0.0049 | 0.014 | -0.0515 | 0.24 | -0.074 | -0.0793 | 0.104 | 0.113 | -0.0336 | -0.0353 | 0.0487 | -0.0216 | -0.0517 | -0.0426 | -0.0587 | 0.0759 | 0.0303 | 0.0016 | -0.0729
CC1(C)CCC(CN2CCN(c3ccc(C(=O)NS(=O)(=O)c4ccc(NCC5CCOCC5)c([N+](=O)[O-])c4)c(Oc4cnc5[nH]ccc5c4)c3)CC2)=C(c2ccc(Cl)cc2)C1 [Venetoclax] + C[C@@H]1COCCN1C2=NC(=NC(=C2)C3(CC3)[S@](=N)(=O)C)C4=C5C=CNC5=NC=C4 [AZD6738] (first compound max 1 µM, 7x7, partner max 10 µM) | 0.009 | -0.0327 | -0.0195 | -0.0491 | -0.0272 | -0.0556 | -0.0438 | 0.0565 | 0.0204 | 0.0106 | 0.0138 | -0.0188 | -0.0482 | -0.0736 | -0.0249 | -0.0859 | 0.0165 | -0.001 | -0.0215 | -0.0926
CC1(C)CCC(CN2CCN(c3ccc(C(=O)NS(=O)(=O)c4ccc(NCC5CCOCC5)c([N+](=O)[O-])c4)c(Oc4cnc5[nH]ccc5c4)c3)CC2)=C(c2ccc(Cl)cc2)C1 [Venetoclax] + C[C@@H](Nc1cc(F)cc(F)c1)c1cc(C(=O)N(C)C)cc2c(=O)cc(N3CCOCC3)oc12 [AZD8186] (first compound max 1 µM, 7x7, partner max 3 µM) | -0.0332 | -0.0044 | 0.0095 | -0.0481 | 0.0104 | -0.0255 | -0.0195 | 0.0348 | 0.115 | -0.0213 | -0.0152 | -0.0202 | 0.0138 | -0.0029 | -0.0452 | -0.0555 | -0.0471 | -0.0073 | -0.0255 | -0.053
CC1(C)CCC(CN2CCN(c3ccc(C(=O)NS(=O)(=O)c4ccc(NCC5CCOCC5)c([N+](=O)[O-])c4)c(Oc4cnc5[nH]ccc5c4)c3)CC2)=C(c2ccc(Cl)cc2)C1 [Venetoclax] + Cc1cc2ncnn2cc1Nc1ncc2c(n1)n(C1CCOCC1)c(=O)n2C [AZD7648] (first compound max 1 µM, 7x7, partner max 10 µM) | 0.0225 | -0.105 | -0.0154 | -0.0271 | -0.0135 | -0.0426 | -0.037 | -0.0184 | 0.0602 | -0.0202 | 0.0236 | 0.0423 | -0.027 | 0.0142 | 0.0031 | -0.0076 | -0.0287 | 0.0659 | 0.0077 | -0.0328
CC1(C)CCC(CN2CCN(c3ccc(C(=O)NS(=O)(=O)c4ccc(NCC5CCOCC5)c([N+](=O)[O-])c4)c(Oc4cnc5[nH]ccc5c4)c3)CC2)=C(c2ccc(Cl)cc2)C1 [Venetoclax] + Cn1cnc2c(F)c(Nc3ccc(Br)cc3Cl)c(C(=O)NOCCO)cc21 [Selumetinib] (first compound max 1 µM, 7x7, partner max 3 µM) | -0.0192 | -0.0407 | 0.0208 | -0.0942 | -0.055 | -0.0656 | -0.0441 | 0.168 | -0.006 | -0.028 | -0.0619 | -0.0103 | -0.0176 | -0.0515 | -0.0537 | -0.0235 | -0.0405 | -0.0151 | -0.0261 | -0.0288
